Reference: patent US20230017532A1 (Hoffmann-La Roche Inc., priority 2018, published 2023)
Where a name gives a salt, the structure may show the parent alone.

Tested on: Acinetobacter baumannii ATCC17978
Experiment: Antimicrobial susceptibility testing: 90% growth inhibitory concentration (IC90) determination, Iso-Sensitest broth, OD 600 nm
Type: cell-based
Conditions: Acinetobacter baumannii, ATCC17978, 16 h, 90% growth inhibitory concentration, Acinetobacter baumannii ATCC17978, Iso-Sensitest broth, OD 600 nm over 16 h; read-out: ATCC 17978 IC90
Experimental: Antimicrobial Susceptibility Testing:
90% Growth Inhibitory Concentration (IC90) Determination
The in vitro antimicrobial activity of the compounds was determined according to the following procedure:
The assay used a 10-points Iso-Sensitest broth medium to measure quantitatively the in vitro activity of the compounds against Acinetobacter baumannii ATCC17978 and Acinetobacter baumannii ATCC17961.
Stock compounds in DMSO were serially twofold diluted (e.g. range from 50 to 0.097 μM final concentration) in 384 wells microtiter plates and inoculated with 49 μl the bacterial suspension in Iso-Sensitest medium to have a final cell concentration of ˜5×10^(5) CFU/ml in a final volume/well of 50 ul/well. Microtiter plates were incubated at 35±2° C.
Bacterial cell growth was determined with the measurement of optical density at λ=600 nm each 20 minutes over a time course of 16 h. Growth inhibition was calculated during the logarithmic growth of the bacterial cells with determination of the concentration inhibiting 50% (IC50) and 90% (IC90) of the growth.
Table 1 provides the 90% growth inhibitory concentrations (IC90) in micromoles per liter of the compounds of present invention obtained against the strain Acinetobacter baumannii ATCC17978 and Acinetobacter baumannii ATCC17961.

SMILES | IC90 [nM]
COc1ccc(-c2cnc3c(Nc4ccc(C(=O)NCCOCCN5CCC(O)CC5)c(C)c4)nccn23)cc1 [Example 38, N-(2-(2-(4-hydroxypiperidin-1-yl)ethoxy)ethyl)-4-((3-(4-methoxyphenyl)imidazo[1,2-a]pyrazin-8-yl)amino)-2-methylbenzamide] | 150
CNCCCCNC(=O)c1ccc(Nc2nccn3c(-c4ccc(OC)c(F)c4)cnc23)cc1C [Example 161, 4-[[3-(3-fluoro-4-methoxyphenyl)imidazo[1,2-a]pyrazin-8-yl]amino]-2-methyl-N-[4-(methyl-amino)butyl] benzamide; hydrochloride] | 350
CCc1cc(Nc2nccn3c(-c4ccc(OC)c(F)c4F)cnc23)ccc1C(=O)NCCNCC(=O)O [Example 48, (2-(4-((3-(2,3-difluoro-4-methoxyphenyl)imidazo[1,2-a]pyrazin-8-yl)amino)-2-ethylbenzamido)ethyl)glycine compound with 2,2,2-trifluoroacetic acid] | 920
CCc1cc(Nc2nccn3c(-c4ccc(OC)c(F)c4F)cnc23)ccc1C(=O)NCCCCCNCC(=O)O [Example 50, (5-(4-((3-(2,3-difluoro-4-methoxyphenyl)imidazo[1,2-a]pyrazin-8-yl)amino)-2-ethylbenzamido)pentyl)glycine hydrochloride] | 190
Cc1cc(Nc2nccn3c(-c4ccc(OCC#CCN)c(F)c4F)cnc23)ccc1C(=O)NCCOCCN [Example 160, 4-[[3-[4-(4-aminobut-2-ynoxy)-2,3-difluorophenyl]imidazo[1,2-a]pyrazin-8-yl]amino]-N-[2-(2-aminoethoxy)ethyl]-2-methylbenzamide] | 430
Cc1cc(Nc2nccn3c(-c4ccc(OC(F)F)cc4)cnc23)ccc1C(=O)NCCOCCNC(=O)C(N)CCCCN (stereo not shown) [Example 154, N-[2-[2-(2,6-diaminohexanoyl-amino)ethoxy]ethyl]-4-[[3-[4-(difluoromethoxy)phenyl]imidazo [1,2-a]pyrazin-8-yl]amino]-2-methylbenzamide; hydrochloride] | 2200
COc1ccc(-c2cnc3c(Nc4ccc(C(=O)NCCNCCN)c(C)c4)nccn23)cc1 [Example 104, N-[2-(2-aminoethylamino)ethyl]-4-[[3-(4-methoxyphenyl)imidazo[1,2-a]pyrazin-8-yl]amino]-2-methylbenzamide; hydrochloride] | 480
C#CCOc1ccc(-c2cnc3c(Nc4ccc(C(=O)NCCOCCN)c(CC)c4)nccn23)c(F)c1F [Example 69, N-(2-(2-aminoethoxy)ethyl)-4-((3-(2,3-difluoro-4-(prop-2-yn-1-yloxy)phenyl)imidazo[1,2-a]pyrazin-8-yl)amino)-2-ethylbenzamide] | 46
C#CCOc1ccc(-c2cnc3c(Nc4ccc(C(=O)NCCOCCN)c(C)c4)nccn23)cc1 [Example 28, N-[2-(2-Aminoethoxy)ethyl]-2-methyl-4-[[3-(4-prop-2-ynoxyphenyl)imidazo[1,2-a]pyrazin-8-yl]amino]benzamide; formic acid] | 120
Cc1cc(Nc2nccn3c(-c4ccc(Cl)cc4)cnc23)ccc1C(=O)NCCOCCN [Example 99, N-[2-(2-aminoethoxy)ethyl]-4-[[3-(4-chlorophenyl)imidazo[1,2-a]pyrazin-8-yl]amino]-2-methylbenzamide; hydrochloride] | 440
COc1ccc(-c2cnc3c(Nc4ccc(C(=O)NCCCOCC(=O)O)c(C)c4)nccn23)cc1F [Example 157, 2-[3-[[4-[[3-(3-fluoro-4-methoxyphenyl)imidazo[1,2-a]pyrazin-8-yl]amino]-2-methylbenzoyl]amino]propoxy] acetic acid] | 8100
CCc1cc(Nc2nccn3c(-c4ccc(Cl)c(F)c4F)cnc23)ccc1C(=O)NCCOCCN [Example 9, N-(2-(2-aminoethoxy)ethyl)-4-((3-(4-chloro-2,3-difluorophenyl)imidazo[1,2-a]pyrazin-8-yl)amino)-2-ethylbenzamide hydrochloride] | 160
Cc1cc(Nc2nccn3c(-c4ccc(OC(F)F)cc4)cnc23)ccc1C(=O)NCCS(=O)(=O)CCN [Example 46, N-(2-((2-Aminoethyl)sulfonyl)ethyl)-4-((3-(4-(difluoromethoxy)phenyl)imidazo[1,2-a]pyrazin-8-yl)amino)-2-methylbenzamide] | 530
Cc1cc(Nc2nccn3c(-c4ccc(Cl)c(F)c4F)cnc23)ccc1C(=O)NCCNCCO [Example 80, 4-[[3-(4-chloro-2,3-difluorophenyl)imidazo[1,2-a]pyrazin-8-yl]amino]-N-[2-(2-hydroxy-ethylamino)ethyl]-2-methyl-benzamide; hydrochloride] | 5100
COCCOCCOCCNC(=O)c1ccc(Nc2nccn3c(-c4ccc(OC(F)F)cc4)cnc23)cc1C [Example 150, 4-[[3-[4-(difluoro-methoxy)phenyl]imidazo [1,2-a]pyrazin-8-yl]amino]-N-[2-[2-(2-methoxy-ethoxy)ethoxy]ethyl]-2-methylbenzamide] | 1500
CNCCOCCNC(=O)c1ccc(Nc2nccn3c(-c4ccc(OC(F)F)cc4)cnc23)cc1C [Example 45, 4-((3-(4-(difluoromethoxy)phenyl)imidazo[1,2-a]pyrazin-8-yl)amino)-2-methyl-N-(2-(2-(methylamino)ethoxy)ethyl)benzamide] | 290
COc1ccc(-c2cnc3c(Nc4ccc(C(=O)NCCOCCN)c(F)c4)nccn23)cc1 [Example 145, N-[2-(2-aminoethoxy)ethyl]-2-fluoro-4-[[3-(4-methoxyphenyl)imidazo[1,2-a]pyrazin-8-yl]amino] benzamide; hydrochloride] | 1200
COc1ccc(-c2cnc3c(Nc4ccc(C(=O)NCCOCCNC(=O)CO)c(C)c4)nccn23)cc1 [Example 148, N-[2-[2-[(2-hydroxyacetyl)amino]ethoxy]ethyl]-4-[[3-(4-methoxyphenyl)imidazo[1,2-a]pyrazin-8-yl]amino]-2-methylbenzamide] | 1300
Cc1cc(Nc2nccn3c(-c4ccc(Cl)cc4)cnc23)ccc1C(=O)N(C)CCOCCN [Example 138, N-[2-(2-aminoethoxy)ethyl]-4-[[3-(4-chlorophenyl)imidazo[1,2-a]pyrazin-8-yl]amino]-N,2-dimethyl-benzamide; hydrochloride] | 960
Cc1cc(Nc2nccn3c(-c4ccc(OC(F)F)cc4)cnc23)ccc1C(=O)NCCOCCNC(=O)CN(CCO)CCO [Example 146, N-[2-[2-[[2-[bis(2-hydroxyethyl)amino]acetyl]amino]ethoxy]ethyl]-4-[[3-[4-(difluoromethoxy)phenyl]imidazo [1,2-a]pyrazin-8-yl]amino]-2-methylbenzamide] | 1200
COc1ccc(-c2cnc3c(Nc4ccc(C(=O)NCCOCC(=O)N5CCN(C)CC5)c(C)c4)nccn23)cc1 [Example 115] | 590
COc1ccc(-c2cnc3c(Nc4ccc(C(=O)NCCOCCn5ccnn5)c(C)c4)nccn23)cc1 [Example 107, 4-[[3-(4-methoxyphenyl)imidazo[1,2-a]pyrazin-8-yl]amino]-2-methyl-N-[2-[2-(triazol-1-yl)ethoxy]ethyl] benzamide] | 500
Cc1cc(Nc2nccn3c(-c4ccc(OC(F)F)c(F)c4)cnc23)ccc1C(=O)NCCOCCN [Example 97, N-[2-(2-aminoethoxy)ethyl]-4-[[3-[4-(difluoro-methoxy)-3-fluorophenyl]imidazo[1,2-a]pyrazin-8-yl]amino]-2-methylbenzamide; hydrochloride] | 370
Cc1cc(Nc2nccn3c(-c4ccc(Cl)c(F)c4F)cnc23)ccc1C(=O)NCCNCCN [Example 122, N-[2-(2-aminoethylamino)ethyl]-4-[[3-(4-chloro-2,3-difluorophenyl)imidazo[1,2-a]pyrazin-8-yl]amino]-2-methylbenzamide; hydrochloride] | 620
Cc1cc(Nc2nccn3c(-c4ccc(OC(F)F)cc4)cnc23)ccc1C(=O)NCCOCCN [Example 90, N-[2-(2-aminoethoxy)ethyl]-4-[[3-[4-(difluoro-methoxy)phenyl]imidazo[1,2-a]pyrazin-8-yl]amino]-2-methylbenzamide; hydrochloride] | 230
CCc1cc(Nc2nccn3c(-c4ccc(OCC(=O)OC)c(F)c4F)cnc23)ccc1C(=O)NCCOCCN [Example 172, formic acid; methyl 2-[4-[8-[4-[2-(2-aminoethoxy)ethylcarbamoyl]-3-ethylanilino]imidazo[1,2-a]pyrazin-3-yl]-2,3-difluorophenoxy] acetate] | 310

Same assay, conditions: Acinetobacter baumannii, ATCC17978, 16 h, read-out: ATCC 17978 IC90

SMILES | IC90 [nM]
Cc1cc(Nc2nccn3c(-c4ccc(OCC#N)c(F)c4)cnc23)ccc1C(=O)NCCOCCN [Example 68, N-[2-(2-aminoethoxy)ethyl]-4-[[3-[4-(cyanomethoxy)-3-fluoro-phenyl]imidazo[1,2-a]pyrazin-8-yl]amino]-2-methyl-benzamide; formic acid] | 220
COc1ccc(-c2cnc3c(Nc4ccc(C(=O)NCCOCCN)c(Cl)c4)nccn23)cc1F [Example 4, N-(2-(2-aminoethoxy)ethyl)-2-chloro-4-((3-(3-fluoro-4-methoxyphenyl)imidazo[1,2-a]pyrazin-8-yl)amino)benzamide hydrochloride] | 98
